Measured values as given in patent publication US20130109693A1, “DERIVATIVES OF PYRIDO [3,2-D] PYRIMIDINE, METHODS FOR PREPARATION THEREOF AND THERAPEUTIC USES THEREOF” (UNIVERSITE D'ORLEANS, priority 2010, published 2013).
pIC50: −log10 of the molar value.

How the values were obtained:
Huh7 = test: Cytotoxicity on human cells, Huh7 (liver); format: cell-based; details: Huh-7, human cells, exposed 24 h and 48 h, 0.1 to 25 μM
Method: (§1) […] Dosages on Human cells (Huh7, Caco, MDA-MB 231, HCT 116, PC3, NCl, Fibroblast)
(§2) Cytotoxicity: This method is based on an automated imaging analysis. 4.10^3 cells were cultivated on 96-well plates and thus left for 24 hours so that they may bind, be distributed and proliferate.
(§3) These cells were then exposed for 24 h and 48 h to increasing concentrations of the compounds of the invention, from 0.1 to 25 μM in a final volume of 80 μL of culture medium. The cells are then set with a 4% paraformaldehyde solution and the nuclei are colored with Hoechst 3342 and counted according to automated imaging quantification.
(§4) All the cell lines were cultivated in a DMEM or RPMI (Invitrogen) medium. All these media were completed with antibiotics (penicillin-streptomycin)(Lonza) and 10% by volume of foetal calf serum (Invitrogen). The cells were cultivated at 37° C. with 5% of CO2. The treatments with the molecules to be tested were carried out with increasing concentrations. […] The control experiments were also conducted by using suitable dilutions of DMSO (maximum 1% DMSO). Cell viability was determined by measuring the reduction of MTS as described in the article of Ribas J, Boix J. (2004). Cell differentiation caspase inhibition and macromolecular synthesis blockage but not BCL-2 or BCL-XL proteins protect SH-SY5Y cells from apoptosis triggered by two CDK inhibitory drugs. Exp. Cell Res., 295: 9-24.

Caco = test: Cytotoxicity on human cells, Caco (colon); format: cell-based; details: exposed 24 h and 48 h, 0.1 to 25 μM
Method: as §1, §2, §3, §4

MDA-MB 231 = test: Cytotoxicity on human cells, MDA-MB 231 (breast); format: cell-based; details: MDA-MB-231, human cells, exposed 24 h and 48 h, 0.1 to 25 μM
Method: as §1, §2, §3, §4

HCT 116 = test: Cytotoxicity on human cells, HCT 116 (colon); format: cell-based; details: exposed 24 h and 48 h, 0.1 to 25 μM
Method: as §1, §2, §3, §4

PC3 = test: Cytotoxicity on human cells, PC3 (prostate); format: cell-based; details: PC-3, human cells, exposed 24 h and 48 h, 0.1 to 25 μM
Method: as §1, §2, §3, §4

NCI = test: Cytotoxicity on human cells, NCI (lung); format: cell-based; details: exposed 24 h and 48 h, 0.1 to 25 μM
Method: as §1, §2, §3, §4

fibroblast = test: Cytotoxicity on human cells, fibroblast; format: cell-based; details: exposed 24 h and 48 h, 0.1 to 25 μM
Method: as §1, §2, §3, §4

DYRK1A = DYRK1A (Homo sapiens, UniProt Q13627); test: DYRK1A kinase inhibition (Woodtide substrate, buffer A); format: biochemical; details: 15 μM ATP, 30° C., recombinant GST fusion; read-out: IC50 Kinases DYRK1A
Method: (§5) The activities for inhibiting protein kinases of the compounds of the invention are tested according to the following general procedure:
(§6) Buffer A: 10 mM MgCl2, 1 mM EGTA, 1 mM DTT, 25 mM Tris-HCl pH 7.5 and 50 μg heparin/mL.
(§7) The kinase activities are dosed in buffers A or C, at 30° C., at a final concentration of ATP of 15 μM. The values of the blanks were subtracted and the activities are expressed as a % of the maximum activity, i.e. in the absence of inhibitors. The controls were carried out with suitable dilutions of DMSO.

CDK5 = biological target: T1, CDK5 (Homo sapiens, UniProt Q00535); test: CDK5 kinase inhibition (histone H1, [γ-33P] ATP, buffer C); format: biochemical; details: 15 μM ATP, 30° C., recombinant; read-out: IC50 Kinases CDK5
T1 construct: made in house
T1 sequence (Q00535 whole entry): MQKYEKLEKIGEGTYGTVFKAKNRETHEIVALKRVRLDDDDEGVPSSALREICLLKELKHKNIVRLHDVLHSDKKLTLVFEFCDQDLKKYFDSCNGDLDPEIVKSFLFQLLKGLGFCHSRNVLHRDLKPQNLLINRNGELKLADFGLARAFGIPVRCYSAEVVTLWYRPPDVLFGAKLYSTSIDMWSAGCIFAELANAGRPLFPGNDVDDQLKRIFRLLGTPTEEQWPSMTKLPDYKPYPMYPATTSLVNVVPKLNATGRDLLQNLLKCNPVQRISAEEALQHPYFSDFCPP
T1 sequence (Q15078 99-307 partner limits assumed): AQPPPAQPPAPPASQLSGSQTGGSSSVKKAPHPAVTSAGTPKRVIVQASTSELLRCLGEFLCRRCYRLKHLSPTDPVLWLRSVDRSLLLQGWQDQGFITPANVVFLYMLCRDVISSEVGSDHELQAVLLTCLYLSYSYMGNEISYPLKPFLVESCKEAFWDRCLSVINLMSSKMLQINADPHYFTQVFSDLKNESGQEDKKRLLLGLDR
Method: as §5
Buffer C: 60 mM β-glycerophosphate, 15 mM p-nitrophenyl-phosphate, 25 mM Mops (pH 7.2), 5 mM EGTA, 15 mM MgCl2, 1 mM DTT, 1 mM of sodium vanadate
as §7
CDK5 (humane, recombinant) was prepared as described earlier (Leclerc, S.; Garnier, M.; Hoessel, R.; Marko, D.; Bibb, J. A.; Snyder, G. L.; Greengard, P.; Biernat, J.; Mandelkow, E.-M.; Eisenbrand, G.; Meijer, L. Indirubins inhibit glycogen synthase kinase-3β and CDK5/p25, two kinases involved in abnormal tau phosphorylation in Alzheimer's disease—A property common to most CDK inhibitors? J. Biol. Chem. 2001, 276, 251-260; Bach S, Knockaert M, Reinhardt J, Lozach O, Schmitt S, Baratte B et al. (2005). Roscovitine targets, protein kinases and pyridoxal kinase. J. Biol Chem 280: 31208-31219). Its kinase activity was analyzed in the buffer C, with 1 mg of histone H1/mL, in the presence of 15 μM of [γ-^33P] ATP (3,000 Ci/mmol; 10 mCi/mL) in a final volume of 30 μl. After 30 mins of incubation at 30° C., 25 μl of supernatant aliquots were deposited on 2.5×3 cm pieces of phosphocellulose Whatman P81 paper, and after 20 seconds, the filters were washed five times (for at least 5 minutes every time) in a solution of 10 mL phosphoric acid/liter of water. The wet filters were counted in the presence of 1 mL of ACS scintillator fluid (Amersham).

GSK-3αβ = GSK-3αβ kinase inhibition (GS-1 substrate, buffer A); format: biochemical; details: 15 μM ATP, 30° C., native, pig brain; read-out: IC50 Kinases GSK3
Method: as §5, §6, §7
GSK-3αβ (from pig brain, native) was assayed by using a specific substrate of GSK-3 (GS-1: […]pEDEEE)(Sp represents a phosphorylated serine) (Primot, A., Baratte, B., Gompel, M., Borgne, A., Liabeuf, S., Romette, J. L., Costantini, F. and Meijer, L., 2000. Purification of GSK-3 by affinity chromatography on immobilized axin. Protein Expr. & Purif. 20 (3), 394-404). GS-1 was synthesized by Millegen (Labège, France). Its kinase activity was analyzed in the buffer A, with 1 mg of histone H1/mL, in the presence of 15 μM of [γ-^33P] ATP (3,000 Ci/mmol; 10 mCi/mL) in a final volume of 30 μl. After 30 mins of incubation at 30° C., 25 μl of supernatant aliquots were deposited on 2.5×3 cm pieces of phosphocellulose Whatman P81papier, and after 20 seconds, the filters were washed five times (for at least 5 minutes every time) in a solution of 10 mL of phosphoric acid/liter of water. The wet filters were counted in the presence of 1 mL of ACS scintillator fluid (Amersham).

| Structure (SMILES) | pIC50 (DYRK1A) | pIC50 (CDK5) | pIC50 (GSK-3αβ) | melting point [°C] | pIC50 (Huh7) | pIC50 (Caco) | pIC50 (MDA-MB 231) | pIC50 (HCT 116) | pIC50 (PC3) | pIC50 (NCI) | pIC50 (fibroblast) |
| --- | --- | --- | --- | --- | --- | --- | --- | --- | --- | --- | --- |
| Oc1ccc(Nc2ncc3ncc(Cl)cc3n2)cc1 [Compound 59, 7-Chloro-2-(4-hydroxyphenylamino)-pyrido[3,2-d]pyrimidine] | < 5.00 | 5.96 | < 5.00 | 232 to 234 | 4.92 | < 4.60 | 5.22 | 5.70 | 4.92 | 5.00 | 5.30 |
| Oc1ccc(Nc2ncc3ncc(-c4ccc(O)cc4)cc3n2)cc1 [Compound 62, 2-(4-Hydroxyphenylamino)-7-(4-hydroxyphenyl)-pyrido[3,2-d]pyrimidine] | < 5.00 | 6.08 | 5.15 | > 268 | 4.92 | 4.82 | 5.00 | 4.92 | 4.82 | 5.40 | 5.30 |
| N#Cc1ccc(Nc2cnc3cnc(-c4ccc(O)cc4)nc3c2)nc1 [Compound 54, 2-(4-Hydroxyphenyl)-7-(2-(5-cyano)pyridinylamino)-pyrido[3,2-d]pyrimidine] | < 5.00 | 5.40 | 5.26 | > 268 | < 4.60 | < 4.60 | 4.92 | < 4.60 | < 4.60 | 4.70 | < 4.60 |
| Oc1cccc(-c2cnc3cnc(-c4cccc(O)c4)nc3c2)c1 [Compound 21, 2,7-Di-(3-hydroxyphenyl)-pyrido[3,2-d]pyrimidine] | 5.47 | 5.59 | < 4.00 | 264 to 265 | < 4.60 | 4.70 | < 4.60 | < 4.60 | 4.60 | < 4.60 | < 4.60 |

More lines, main results first:

| pIC50 (DYRK1A) | pIC50 (CDK5) | pIC50 (GSK-3αβ) | melting point [°C] | Structure (SMILES) | pIC50 (Huh7) | pIC50 (Caco) | pIC50 (MDA-MB 231) | pIC50 (HCT 116) | pIC50 (PC3) | pIC50 (NCI) | pIC50 (fibroblast) |
| --- | --- | --- | --- | --- | --- | --- | --- | --- | --- | --- | --- |
| < 5.00 | 6.89 | < 5.00 | > 268 | Oc1ccc(-c2ncc3ncc(-c4ccncc4)cc3n2)cc1 [Compound 34, 2-(4-Hydroxyphenyl)-7-(4-pyridinyl)-pyrido[3,2-d]pyrimidine] | < 4.60 | < 4.60 | < 4.60 | 5.00 | < 4.60 | 5.30 | 4.82 |
| < 5.00 | 6.92 | < 5.00 | 248 to 250 | Oc1ccc(-c2ncc3ncc(-c4ccsc4)cc3n2)cc1 [Compound 37, 2-(4-Hydroxyphenyl)-7-(3-thiophyl)-pyrido[3,2-d]pyrimidine] | < 4.60 | < 4.60 | < 4.60 | 4.82 | < 4.60 | 5.00 | < 4.60 |
| < 5.00 | 5.92 | < 5.00 | 246 to 248 | COc1ccc(-c2cnc3cnc(-c4ccc(O)cc4)nc3c2)cn1 [Compound 32, 2-(4-Hydroxyphenyl)-7-(3-(6-methoxy)-pyridinyl)-pyrido[3,2-d]pyrimidine] | < 4.60 | < 4.60 | 4.60 | < 4.60 | < 4.60 | 4.60 | 5.00 |
